{"source": "patent US12390440B2", "about": "“Immunomodulating trifluoromethyl-aminal azalides” (Zoetis Services LLC, priority 2020, dated 2025)", "key": {"[1]": {"system": "P. multocida", "test": "Murine P. multocida intranasal challenge study, survival", "type": "in vivo", "settings": "5×10^3 CFU/mouse", "procedure": "In one murine P. multocida intranasal challenge study, mice were administered tulathromycin (16 mg/kg; T02), M9 (32 mg/kg; T03), or ceftiofur (9 mg/kg; T04) by subcutaneous injection 18 hours after bacterial challenge (5×10^3 CFU/mouse) for lung tissue RNA sequence analysis. Survival at Day 7 was about 80%, 50%, and 90% for T02, T03, and T04, respectively, compared to placebo at 0%. Differential gene expression from total lung tissue RNA sequence analysis indicated at least 226 unique genes were up or down regulated (with significance) for T03. Output from ingenuity pathway analysis of these unique genes predicted major upstream regulators of the involved pathways. Data was analyzed based on the number of genes being modulated in the same direction that were associated with a given upstream regulator. An activation z-score of 2 or greater is considered significant and the direction change is indicated by + (activated) or − (inhibited). The top 5 pathways included: IL-9 signaling, glucocorticoid receptor signaling, prolactin signaling, JAK STAT signaling, and IL-17 signaling. The top 6 upstream regulators (activation z-score) included: lipopolysaccharide (−6.725), TNF (−4.669), IFNγ (−5.759), IL-1ß (−5.947), STAT1 (−2.787), and poly rI:rC-RNA (−5.289). Even though this study was run in the murine model, the top upstream regulators identified as being modulated by M9 include an almost ubiquitous overlap with the pathways identified in the natural disease study as being key mediators in BRD, and therefore is modulating highly relevant pathways in BRD pathobiology."}, "[2]": {"system": "M. haemolytica (strain: OSU-012103-BHI)", "test": "Bovine M. haemolytica intratracheal lung challenge model", "settings": "bovine M. haemolytica challenge"}, "[3]": {"system": "S. aureus", "test": "MIC, S. aureus", "settings": "Staphylococcus aureus"}}, "data": [{"molecule": "CO/N=C(\\C(=O)N[C@@H]1C(=O)N2C(C(=O)O)=C(CSC(=O)c3ccco3)CS[C@H]12)c1csc(N)n1", "note": "[ceftiofur]", "values": [{"measurement": "Survival at Day 7", "setting": "[1]; 9 mg/kg (T04) subcutaneous 18 hours after challenge", "value": "~90", "unit": "%"}]}, {"molecule": "CCCNC[C@]1(O)[C@H](C)O[C@@H](O[C@H]2[C@H](C)[C@@H](O[C@@H]3O[C@H](C)C[C@H](N(C)C)[C@H]3O)[C@](C)(O)C[C@@H](C)CN[C@H](C)[C@@H](O)[C@](C)(O)[C@@H](CC)OC(=O)[C@@H]2C)C[C@@]1(C)OC", "note": "[tulathromycin, (2R,3S,4R,5R,8R,10R,11R,12S,13S,14R)-11-(((2S,3R,4S,6R)-4-(dimethylamino)-3-hydroxy-6-methyltetrahydro-2H-pyran-2-yl)oxy)-2-ethyl-3,4,10-trihydroxy-13-(((2R,4R,5S,6S)-5-hydroxy-4-methoxy-4,6-dimethyl-5-((propylamino)methyl)tetrahydro-2H-pyran-2-yl)oxy)-3,5,8,10,12,14-hexamethyl-1-oxa-6-azacyclopentadecan-15-one]", "values": [{"measurement": "IL-6 levels", "setting": "[2]", "value": "significantly reduced"}, {"measurement": "MIC", "setting": "[3]", "value": 8, "unit": "µg/mL"}, {"measurement": "Survival at Day 7", "setting": "[1]; 16 mg/kg (T02) subcutaneous 18 hours after challenge", "value": "about 80%"}]}]}
